Assay results reported in US20090312286A1, “DERIVATIVES OF 4-TRIMETHYLAMMONIUM-3-AMINOBUTYRATE AND 4-TRIMETHYLPHOSPHONIUM-3-AMINOBUTYRATE AS CPT-INHIBITORS” (SIGMA-TAU INDUSTRIE FARMACEUTICHE RIUNITE S.P.A., priority 2006, published 2009).

How the values were obtained:
[1] = target: T1, CPT1 in rat mitochondria (liver) (Rattus norvegicus, UniProt P32198); experiment: In vitro inhibition of CPT I, rat liver mitochondria; format: biochemical; conditions: for Ratio: IC50 (heart) / IC50 (liver); for IC50: CPT1, liver mitochondria of Fischer rats, 50 μM palmitoyl-CoA, 10 mM L-carnitine, 37° C., 1 minute
T1 construct: fresh mitochondrial preparations obtained from the liver or heart of Fischer rats; from tissue; host or cells: rat liver mitochondria (Fischer rats)
T1 sequence (P32198 1-773): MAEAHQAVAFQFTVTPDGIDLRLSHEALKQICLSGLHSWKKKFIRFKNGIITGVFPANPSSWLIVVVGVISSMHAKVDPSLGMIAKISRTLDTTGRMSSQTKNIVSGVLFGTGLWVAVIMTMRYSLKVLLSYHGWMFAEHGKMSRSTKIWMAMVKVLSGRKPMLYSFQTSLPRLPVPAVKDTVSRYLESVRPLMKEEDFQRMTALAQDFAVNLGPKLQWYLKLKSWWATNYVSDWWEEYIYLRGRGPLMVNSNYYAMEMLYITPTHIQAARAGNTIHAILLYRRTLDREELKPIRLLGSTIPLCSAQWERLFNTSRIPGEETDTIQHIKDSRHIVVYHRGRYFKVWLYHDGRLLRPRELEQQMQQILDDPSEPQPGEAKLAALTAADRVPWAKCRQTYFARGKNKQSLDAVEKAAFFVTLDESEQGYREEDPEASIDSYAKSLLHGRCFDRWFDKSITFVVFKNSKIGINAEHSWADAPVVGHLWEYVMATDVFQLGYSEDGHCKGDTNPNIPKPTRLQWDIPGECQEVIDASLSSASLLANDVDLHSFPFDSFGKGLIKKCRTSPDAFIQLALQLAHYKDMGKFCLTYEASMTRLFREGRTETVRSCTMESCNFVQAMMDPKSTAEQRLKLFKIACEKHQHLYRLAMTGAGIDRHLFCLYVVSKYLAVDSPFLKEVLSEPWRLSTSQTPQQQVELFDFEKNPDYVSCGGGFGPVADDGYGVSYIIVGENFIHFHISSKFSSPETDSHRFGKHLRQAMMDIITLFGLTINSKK
Protocol: 100 μl of a mitochondrial suspension, containing 50 μM of [^14C] palmitoyl-CoA (spec.act. 10000 dpm/mole) and 10 mM of L-carnitine, are incubated at 37° C. in the presence of stepped concentrations (0-3 mM) of product under examination.
(§1) The IC50 is then determined.

[2] = system: β-hydroxybutyrate production; experiment: Inhibition of ketone bodies production in vivo in fasted rats; parameters: species or system rat; conditions: for ED50: Rattus norvegicus, single oral treatment, calculated on AUC of β-hydroxybutyrate from time 0 to 9 hours; for reduction of β-hydroxybutyrate levels / time to reach minimum β-hydroxybutyrate values: rats fasted 17 hours; for reduction of β-hydroxybutyrate levels: single oral dose equimolar to 10 mg/Kg of ST1326, measured at 3 and 6 hours; for time to reach minimum β-hydroxybutyrate values: single oral dose equimolar to 10 mg/Kg of ST1326, values stable for additional 3 hours
Protocol: The compounds were administered per os at 9:00 after 17 hours of fasting (n=5) at doses equimolar to 10 mg/kg of ST1326, which is used as reference compound.
The inhibition of CPT and consequently of β-hydroxybutyrate production operated by ST2425 and ST2452 was evaluated in vivo in rats fasted from 17 hours, at doses equimolar to 10 mg/Kg of ST1326 used as reference compound. β-hydroxybutyrate levels were measured at 3 and 6 hours from single oral treatment.
For compound ST2425, inhibition of ketone bodies production was also evaluated at the dosages of 0, 1, 3, 7, 10 mg/kg in rats fasted for 16 hours, following the reduction of β-hydroxybutyrate for 9 hours after single oral treatment.

[3] = system: db/db mice; experiment: Antihyperglycemic activity in db/db mice; format: in vivo, mouse; conditions: vs control
Protocol: ST2425 and ST2452 were administered to db/db mice for 12 days at 30 mg/kg/day, using ST1326 at a higher dose (80 mg/kg/day) as reference compound. At the end of the treatment, serum glucose levels were evaluated after 16 hours fasting and 2 hours from last administration.

[4] = target: T2, CPT1 in rat mitochondria (heart) (Rattus norvegicus, UniProt Q63704); experiment: In vitro inhibition of CPT I, rat heart mitochondria; format: biochemical; conditions: CPT1, heart mitochondria of Fischer rats, 50 μM palmitoyl-CoA, 10 mM L-carnitine, 37° C., 1 minute
T2 construct: fresh mitochondrial preparations obtained from the liver or heart of Fischer rats; from tissue; host or cells: rat heart mitochondria (Fischer rats)
T2 sequence (Q63704 1-772): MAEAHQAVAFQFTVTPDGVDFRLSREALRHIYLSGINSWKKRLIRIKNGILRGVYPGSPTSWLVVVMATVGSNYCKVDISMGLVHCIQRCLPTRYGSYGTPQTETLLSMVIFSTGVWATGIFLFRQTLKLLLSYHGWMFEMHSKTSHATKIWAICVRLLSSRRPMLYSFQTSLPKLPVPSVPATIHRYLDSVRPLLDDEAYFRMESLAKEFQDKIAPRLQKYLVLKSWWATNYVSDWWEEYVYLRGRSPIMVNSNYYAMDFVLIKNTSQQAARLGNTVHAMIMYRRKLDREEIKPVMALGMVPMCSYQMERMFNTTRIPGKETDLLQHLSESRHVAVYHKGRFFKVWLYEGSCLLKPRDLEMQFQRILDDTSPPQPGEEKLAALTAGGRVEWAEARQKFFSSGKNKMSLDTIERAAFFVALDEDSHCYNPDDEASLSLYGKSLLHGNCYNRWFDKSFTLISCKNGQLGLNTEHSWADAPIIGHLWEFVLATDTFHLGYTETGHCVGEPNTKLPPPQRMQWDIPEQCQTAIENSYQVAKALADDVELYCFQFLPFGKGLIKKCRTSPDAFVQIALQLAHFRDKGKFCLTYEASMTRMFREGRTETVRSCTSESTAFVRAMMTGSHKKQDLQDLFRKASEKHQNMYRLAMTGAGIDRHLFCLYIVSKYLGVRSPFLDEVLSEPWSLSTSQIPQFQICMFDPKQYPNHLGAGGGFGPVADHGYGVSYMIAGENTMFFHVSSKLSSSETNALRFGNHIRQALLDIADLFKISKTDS
Protocol: The inhibition of CPT was evaluated on fresh mitochondrial preparations obtained from the liver or heart of Fischer rats, fed normally; the mitochondria taken from the liver or heart are suspended in a 75 mM sucrose buffer, EGTA 1 mM, pH 7.5. 100 μl of a mitochondrial suspension, containing 50 μM of [^14C] palmitoyl-CoA (spec.act. 10000 dpm/mole) and 10 mM of L-carnitine, are incubated at 37° C. in the presence of stepped concentrations (0-3 mM) of product under examination.
as §1

[5] = system: C57BL/6J mice; experiment: Effect on food intake and body weight of repeated intracerebroventricular administration; format: in vivo, mouse; conditions: for Mice weight / 24 hours food intake: C57BL6/J mice, Mean ± S.D.
Protocol: Two groups of 8 C57BL/6J mice each (ST2425 and Control) were injected icv (3 μL) with 250 pmoles (0.113 μg) of ST2425 dissolved in RPMI 1640 (vehicle), for 4 days (starting from day 0). The animals were slightly confused by isofluorane anestesia. The head was positioned in an apparatus used to reveal a “virtual bregma” without opening the skin. The injection was performed with a syringe at 3.5 mm of depth, using the following coordinates from Bregma: 1 mm on the left of the midsagittal suture and 3 mm posterior (lateral ventricle). The animals were treated at 5:00 p.m. and food intake was monitored at 8:00 a.m. of the day after. Starting from the day after the first treatment, food was removed from 8:00 a.m. to 5:00 p.m.
Statistical analysis was performed using two way repeated measures ANOVA followed by Student, Newman, Keuls test as post-hoc analysis.

[6] = system: Sprague Dawley rats; experiment: Effect on food intake of intranasal administration in normal rats; format: in vivo; conditions: intranasal 320 μg/40 μL/rat for 3 days, starting from the day after the second treatment, FIG. 3
Protocol: FIG. 3 reports the food intake (expressed as g/kg b.w.) in Sprague Dawley rats, treated intranasally for 3 days with ST2425 (320 μg/40 μl/rat) equally subdivided in the two nostrils. (Mean±S.D. (n=5). One way ANOVA post-hoc test SNK *p≦0.05 vs Control)
To test the activity on food consumption of the compounds of the present invention after intranasal administration, ST2425 was given to normally-fed Sprague Dawley rats (320 μg/40 μL/rat, in citrate buffer 10 mmol/L pH 5.0, equally subdivided into the two nostrils) 2 h before the dark cycle. The compound was administered for 3 days (starting from day 0) and food consumption was measured every time for the following 24 h. Five rats were considered for each group.

[7] = day 1, icv 250 pmoles for 4 days
[8] = day 2, icv 250 pmoles for 4 days
[9] = day 3, icv 250 pmoles for 4 days
[10] = day 4, icv 250 pmoles for 4 days
[11] = days 3 and 4, statistically significant
[12] = over the experiment, icv 250 pmoles for 4 days

**Q.** How did the Ratio [1] turn out when `CCCCCCCCCCCCCCNC(=O)N[C@H](CC(=O)[O-])C[N+](C)(C)C` [ST1326, R-4-trimethyl ammonium-3-(tetradecylcarbamoyl)-aminobutyrate, reference compound] was run?
**A.** 135

**Q.** And the ED50 ([2]; rats fasted 16 hours)?
**A.** 14.5 mg/kg

**Q.** What about the “reduction of glucose levels” value ([3]; 80 mg/kg/day for 12 days) of the same compound?
**A.** 26%

**Q.** How did the IC50 [4] turn out when `CCCCCCOc1cccc(OCCCCNC(=O)N[C@H](CC(=O)[O-])C[N+](C)(C)C)c1` [ST2425, (R)-4-trimethylammonium-3-[[4-[(3-hexyloxy)-phenoxy]butyl]carbamoyl]-amino-butyrate] was run?
**A.** 31.6 µM

**Q.** What about the IC50 [1] of the same compound?
**A.** 270 nM

**Q.** What about the Ratio [1] of the same compound?
**A.** 117

**Q.** What about the ED50 ([2]; rats fasted 16 hours) of the same compound?
**A.** 3.7 mg/kg

**Q.** What about the “effect on ketone bodies levels, dose relation” value ([2]; fasted rats, FIG. 2) of the same compound?
**A.** dose-related effect

**Q.** What about the “onset of action on ketone bodies levels” value ([2]; rats fasted 16 hours, single oral treatment 1-10 mg/kg, FIG. 2) of the same compound?
**A.** faster onset of action

**Q.** And the “reduction of β-hydroxybutyrate levels” value [2]?
**A.** higher and faster with respect to ST1326

**Q.** And the “time to reach minimum β-hydroxybutyrate values” [2]?
**A.** 3 h

**Q.** What about the “reduction of glucose levels” value ([3]; 30 mg/kg/day for 12 days) of the same compound?
**A.** 41%

**Q.** And the Mice weight ([5]; day 0, icv 250 pmoles for 4 days)?
**A.** 22.2 ± 0.91 g

**Q.** And the “24 hours food intake” value [5, 7]?
**A.** 3.15 ± 0.61 g

**Q.** And the Mice weight [5, 7]?
**A.** 21.2 ± 0.96 g

**Q.** What about the “24 hours food intake” value [5, 8] of the same compound?
**A.** 3.31 ± 0.70 g

**Q.** And the Mice weight [5, 8]?
**A.** 20.5 ± 1.14 g

**Q.** What about the “change of mice weight” value ([5]; day 2, statistically significant) of the same compound?
**A.** −5%

**Q.** What about the “24 hours food intake” value [5, 9] of the same compound?
**A.** 3.35 ± 0.73 g

**Q.** And the Mice weight [5, 9]?
**A.** 20.0 ± 0.69 g

**Q.** And the “24 hours food intake” value [5, 10]?
**A.** 3.55 ± 0.63 g

**Q.** And the Mice weight [5, 10]?
**A.** 20.1 ± 0.64 g

**Q.** What about the “change of mice weight” value [5, 11] of the same compound?
**A.** −10%

**Q.** What about the “reduction of food intake” value [5, 11] of the same compound?
**A.** about 30%

**Q.** And the “change of food consumption with respect to the control group” value [5, 12]?
**A.** −25%

**Q.** What about the “change of mice weight with respect to the control group” value [5, 12] of the same compound?
**A.** −7%

**Q.** And the “food consumption with respect to controls” value [6]?
**A.** significant reduction of food consumption

**Q.** Which results are given for `CCCCCCOc1cccc(OCCCCNC(=O)N[C@H](CC(=O)[O-])C[P+](C)(C)C)c1` [ST2452, (R)-4-trimethylphosphonium-3-[[4-[(3-hexyloxy)phenoxy]butyl]carbamoyl]-amino-butyrate]?
**A.** IC50 [4]: 57.3 µM; IC50 [1]: 120 nM; Ratio [1]: 478; reduction of β-hydroxybutyrate levels [2]: higher and faster with respect to ST1326; time to reach minimum β-hydroxybutyrate values [2]: 3 h; reduction of glucose levels ([3]; 30 mg/kg/day for 12 days): 30%
